Experiment [1] deals with MYC RNA expression in MCF7 cells. In words: RT-qPCR of MYC RNA expression. It is filed as cell-based, human. As to conditions: MCF7 cells estrogen-deprived 3 days; 10 nM estrogen, or 10 nM estrogen and 5 uM 4-hydroxytamoxifen, 24 hours; normalized to GAPDH. How it is done:
RNA was isolated by AllPrep Kit (Qiagen 80204) followed by cDNA synthesis using High-Capacity cDNA Reverse Transcription Kit (Applies Biosystems 4368814). qPCR was performed in biological and technical triplicate using Power SYBR Green mix (Life Technologies #4367659) on a QuantStudio 6 System (Life Technologies). The following oligos was used in the qPCR; Myc fwd […] (SEQ ID NO: 255), MYC rev […] (SEQ ID NO: 256), GAPDH fwd […] (SEQ ID NO: 257), GAPDH rev […] (SEQ ID NO: 258). Fold change was calculated and MYC expression values were normalized to GAPDH expression.
In general terms: Quantitative PCR measures a nucleic acid by following its amplification.

In experiment [2] the test system is MED1 signal at the MYC locus in MCF7 cells. In words: Immunofluorescence for MED1 with DNA FISH at the MYC locus. As to conditions: MCF7 cells estrogen-deprived 3 days; 10 uM estradiol, or 10 uM estradiol and 5 uM 4-hydroxytamoxifen, 45 minutes. Format: cell-based, human. How it is done:
Human tumor tissues sliced at 10 μm thickness or cells grown on Poly-L-Ornithine coated glass were washed once with PBS and fixed in 4% Paraformaldehyde, PFA, (VWR, BT140770) for 10 minutes. After three washes in PBS for 5 min, cells were stored at 4° C. or transferred to a humidifying chamber and processed for immunofluorescence. Permeabilization of cells was performed using 0.5% triton X100 (Sigma Aldrich, X100) in PBS for 10 minutes followed by three PBS washes. Cells were blocked with 4% IgG-free Bovine Serum Albumin, BSA, (VWR, 102643-516) for 30 minutes and the indicated primary antibody (ER ab32063, MED1 ab64965) was added at a concentration of 1:500 in 4% IgG-free Bovine Serum Albumin for 4-16 hours. […]
For analysis of RNA/DNA FISH with immunofluorescence, custom Python scripts were written to process and analyze 3D image data gathered in FISH and IF channels. […] These FISH foci were filtered by various criteria, including size (minimum 100 voxels), circularity of a max z-projection (circularity=4pi*area/perimeter^2; 0.7), and being present in a nucleus (determined by nuclear mask described above). […] The IF signal centered at FISH foci for each FISH and IF pair are then combined and an average intensity projection is calculated, providing averaged data for IF signal intensity within a l×l square centered at FISH foci. […]

Experiment [3] relates to ER LBD-MED1 condensate in U2OS-Lac cells. In words: LAC binding assay (ER LBD tethered to Lac array). Format: cell-based. Particulars: for MED1-containing condensate formation at tethered ER LBD: U2OS-Lac cells, 45 minutes, 10 nM B-Estradiol or 1 uM 4-Hydroxytamoxifen. As for the experimental part:
Constructs were assembled by NEB HIFI cloning in pSV2 mammalian expression vector containing an SV40 promoter driving expression of a CFP-LacI fusion protein. The activation domains and mutant activation domains of ESR1 were fused by the c-terminus to this recombinant protein, joined by the linker sequence […] (SEQ ID NO: 14). For some experiments a variant plasmid with mCherry in place of CFP was used. […] Cells were then plated on fibronectin-coated glass coverslips and transfected using lipofectamine 3000 (Thermofisher L3000015). For high MED1 conditions, a construct with a mammalian expression vector containing a PGK promoter driving the expression of MED1 fused to GFP was co-transfected. […] Following treatment, cells were fixed and immunofluorescence was performed with a MED1 antibody as described above.
For analysis of Lac array data, custom Python scripts were written to process and analyze image data gathered in Lac and tagged-protein channels. Nuclear stains were blurred with a Gaussian filter (sigma=2.0) and clustered into 2 clusters (nuclei and background) by K-means. The nuclei were then labeled with the python scikit-image package using the measure.label function. To segment Lac spots, the Lac image channel was blurred with a Gaussian filter (sigma=2.0), and an intensity threshold (mean+1.5*std) was applied to the image. Segmented regions (also determined by measure.label) were then filtered based on minimum area (150 pixels), maximum area (2000 pixels), circularity (c=4pi*area/perimeter^2; 0.8), and presence in a nucleus as defined by the mask described above. A norm enrichment ratio was calculated by determining the mean intensity of the tagged-protein in the segmented Lac spot and dividing it by the mean intensity of the tagged-protein present in the same whole nucleus.

For the compound `C[C@]12CC[C@@H]3c4ccc(O)cc4CC[C@H]3[C@@H]1CC[C@@H]2O` [estrogen, B-Estradiol], the “MYC RNA expression” value in experiment [1] was “increase”. Moreover, the “MED1 signal at MYC” value in experiment [2] is reported as “enhanced”. Moreover, the “MED1-containing condensate formation at tethered ER LBD” value in experiment [3] is given as “generated a MED1-containing condensate”. For the same compound, the “MED1 condensate formation at tethered ER LBD, dependence on estrogen” value in experiment [3] (normal ER) is “only in the presence of estrogen”.

As to `CC/C(=C(\c1ccccc1)c1ccc(OCCN(C)C)cc1)c1ccccc1` [tamoxifen], the “MYC RNA expression” value in experiment [1] was “reduced”. Besides, the “MED1 signal at MYC” value in experiment [2] was “reduced”. The entries for the “MED1 condensate generation by tethered ER LBD in the presence of tamoxifen” value in experiment [3] (MED1 overexpressed) and in experiment [3] (normal MED1 levels) were “generated a MED1 condensate” and “did not generate a MED1 condensate”, respectively. For the same compound, the “MED1-containing condensate formation at tethered ER LBD” value in experiment [3] was “prevented”.

Values taken from patent publication US20220120736A1, “METHODS AND ASSAYS FOR MODULATING GENE TRANSCRIPTION BY MODULATING CONDENSATES” (Whitehead Institute for Biomedical Research, priority 2018, published 2022).
